Experimental data: PubChem BioAssay AID463074 (Broad Institute, 2010)
Activity calls are given as the source filed them.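 Rule for the calls: active = AC50 no more than tenfold above the top dose tested, or full inhibition at every dose with a flat fit (cut at about 19 µM in these data); inconclusive = flat curve fit with inhibition between 30% and 70%, or poor fit; inactive = AC50 more than tenfold above the top dose tested.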

System: HMLE_sh_eGFP viability, CellTiter-Glo luminescence, 72 h
Test: viability loss of HMLE_sh_eGFP cells – cell-based, luminescence, counter-screen for HMLE_sh_ECad selective toxicity project, dose response (AID 463074);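 note: counterscreen control line to flag general toxicity for the HMLE_sh_ECad screen; potency for loss of viability as luminescence drops below DMSO wells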

Row | Compound | AC50
1 | COc1ccc(O)c(/C=N/Nc2nc(Nc3ccccc3)nc(-n3nc(C)cc3C)n2)c1 | 3.52 µM
2 | CC(C)(C)c1cc(Cl)ccc1OCCOCCN1CCCC1 | 6.54 µM
3 | COc1cc(NC(=O)Nc2cccc(Cl)c2)c(OC)cc1NC(=O)CN1CCCCC1 | 4.3 µM
4 | O=Cc1ccc(Oc2cc(-c3ccccc3)nc(-c3ccccc3)n2)cc1 | 7.03 µM
5 | CC(C)(C)C1CCC2(CC1)C(C#N)=C(SCC(=O)NC1CCCCC1)NC(=O)C2C#N (stereo not given) | 9.88 µM
6 | c1ccc(CN2CCC(Nc3nc(-c4cccs4)nc4ccccc34)CC2)cc1 | 6.8 µM
7 | O=C(O)CCCCCN1C(=O)/C(=C\c2cn(-c3ccccc3)nc2-c2cccs2)SC1=S | 3.5 µM
8 | CC(C)(C)c1cc(C(=O)NNc2cccc(Cl)c2)n(Cc2ccccc2)n1 | 2.07 µM
9 | CN(/N=C/c1cc(Cl)cc(Cl)c1O)C(=S)NC(C)(C)C | 2.75 µM
10 | O=[N+]([O-])c1ccc(CP(=O)(c2ccccc2)c2ccccc2)cc1 | > 19.5 µM (inactive)
11 | COc1ccc(NS(=O)(=O)c2cc(-c3cnc(C4CC4)o3)ccc2C)cc1 | 0.968 µM
12 | O=C(Nc1nc2ccc(SC(F)F)cc2s1)c1ccc(NS(=O)(=O)c2ccc(F)c(F)c2)cc1 | 3.58 µM
13 | COc1ccc(/C=N/OCC(=O)N2CC3(C)CC2CC(C)(C)C3)cc1 (stereo not given) | 14.3 µM
14 | C=C1CCN([C@@H](CC(C)C)C(=O)Nc2nc3ccc(Cl)cc3s2)S(=O)(=O)c2ccccc21 | 14.5 µM
15 | Cc1ccc2nc(NC(=O)c3cccc(-c4cc5ccccc5oc4=O)c3)sc2c1 | > 19.5 µM (inactive)
16 | Cc1ccc(NS(=O)(=O)c2ccc(Cl)c(NC(=S)NC(=O)C3CCCCC3)c2)cc1Cl | 3.58 µM
17 | O=C(Nc1ccncc1)c1cc(-c2cccc(Br)c2)nc2ccccc12 | 5.99 µM
18 | C[C@@H]1CN([C@H](C)CO)C(=O)Cc2cc(NS(=O)(=O)c3ccc(Cl)cc3)ccc2O[C@H]1CN(C)Cc1ccc(C(F)(F)F)cc1 | 3.18 µM
19 | CCOC(=O)C(=Cc1ccc(-n2ccnc2)cc1)C(=O)OCC | 7.68 µM
20 | O=[N+]([O-])c1ccc(Cl)c([N+](=O)[O-])c1 | 5.62 µM
21 | COc1ccc(-n2c(Cc3cccn3C)nnc2SCC(=O)Nc2cccc(Cl)c2)cc1 | > 19.5 µM (inactive)
22 | COc1cc(OC)cc(-c2sc3ccc(OC)cc3c2-c2ccc(O)cc2)c1 | 3.41 µM
23 | CC1CCN(c2nc(Cl)nc(Nc3ccc([N+](=O)[O-])cc3)n2)CC1 | 3.41 µM
24 | COc1ccc(CCNC(=O)c2coc(=O)c(Br)c2)cc1 | 15 µM
25 | COc1ccc(NC(=O)c2cc3ccccc3cc2O)cc1 | 8.3 µM
26 | O=C(CC1NCCc2ccccc21)Nc1ccc(Oc2ccccc2)cc1 (stereo not given) | 7.46 µM
27 | Cc1sc2ncnc(N3CCN(CCOc4ccc(Cl)cc4)CC3)c2c1C | 7.16 µM

Row | Compound | AC50
28 | CC(C)N1CCN(Cc2ccc(OCc3ccccc3)cc2)CC1CCO (stereo not given) | 11.5 µM
29 | COc1cc(SC#N)ccc1N=Cc1c(C)[nH]n(-c2ccc(C)c(C)c2)c1=O | 4.52 µM
30 | Cc1cc([N+](=O)[O-])ccc1-c1ccc(/C=N/NC(=O)c2ccc(Br)o2)o1 | 3.49 µM
31 | OC(CNCC1CCCO1)Cn1c2ccc(Cl)cc2c2cc(Cl)ccc21 (stereo not given) | 7.38 µM
32 | O=C(C#Cc1ccccc1)Nc1cccc(F)c1 | 3.43 µM
33 | CC1(C)C(=O)N(c2ccccc2)C1c1ccccc1O (stereo not given) | 3.25 µM
34 | CCc1ccc(N=Nc2ccc(O)c3[nH]cnc23)cc1 | 2.06 µM
35 | CC(=O)OCCCNc1cc(Sc2ccc(Cl)cc2)c2nonc2c1[N+](=O)[O-] | 4.28 µM
36 | CCCCCCCCNC(C)C(O)c1ccc(SC(C)C)cc1 (stereo not given) | 3.83 µM
37 | Cc1cccc(NC(=O)c2ccc(COc3ccc(Cl)cc3Cl)o2)n1 | 3.38 µM
38 | C[C@H](CO)N1C[C@H](C)[C@@H](CN(C)C(=O)Nc2ccc(C(F)(F)F)cc2)Oc2c(NC(=O)Nc3ccc(C(F)(F)F)cc3)cccc2C1=O | 4.26 µM
39 | Cc1cc(OCc2cc(C(=O)N3CCC(Oc4cccnc4)CC3)no2)cc(C)c1Cl | 8.31 µM
40 | O=C(C[n+]1ccccc1)NNc1ccccc1 | 1.78 µM
41 | CCN(CC(=O)Nc1ccc(NC(C)=O)cc1)C(=O)c1ccccc1CCc1ccccc1 | > 19.5 µM (inactive)
42 | C=CCCC(=O)Nc1nc(C)c(-c2csc(Nc3cc(OC)ccc3OC)n2)s1 | 1.02 µM
43 | Cc1ccc(C(C#N)c2ccc3c(C(F)(F)F)cc(C(F)(F)F)nc3n2)cc1 (stereo not given) | 2.56 µM
44 | Cc1cc2c(cc1C)C(c1ccccc1OC(C)C)CC(=O)N2 (stereo not given) | 1.54 µM
45 | Oc1ccc(-c2csc(Nc3ccccn3)n2)c(O)c1 | 3.93 µM
46 | CN1CCN(c2ccc(S(=O)(=O)N3CCCCC3)cc2NC(=O)/C=C/c2ccc(Cl)c([N+](=O)[O-])c2)CC1 | 4.42 µM
47 | CC(C)C[C@H](N)c1nnc(S(=O)(=O)Cc2ccc(F)cc2)o1 | 8.54 µM
48 | O=C(Nc1ccc(S(=O)(=O)N2CCOCC2)cc1)c1ccc([N+](=O)[O-])o1 | 5.38 µM
49 | Cn1nc(C(F)(F)F)c(C(=O)Nc2cccc(C(F)(F)F)c2)c1SCc1ccc(Cl)cc1 | 7.09 µM
50 | O=C1/C(=C/c2ccncc2)Oc2cc(OS(=O)(=O)c3ccccc3)ccc21 | 4.81 µM
51 | COc1ccc(OC)c(NC(=O)c2nc(S(=O)(=O)Cc3ccccc3)ncc2Cl)c1 | 6.74 µM
52 | COc1ccc(C2c3c(ncn(Cc4ccco4)c3=N)Oc3ccc4ccccc4c32)cc1 (stereo not given) | 7.79 µM
53 | CSc1nc(C)cc(OCC(=O)N/N=C/c2ccccc2O)n1 | 11 µM
54 | Cc1cc(N2C(=O)C=CC2=O)c([N+](=O)[O-])cc1C | 5.88 µM

Row | Compound | AC50
55 | COc1cccc(Nc2nc(-c3cccs3)nc3ccccc23)c1 | 7.32 µM
56 | CCc1cc2cccc(C)c2nc1SCC(=O)c1ccc(NC(C)=O)cc1 | 4.62 µM
57 | COc1ccc(N(CC(=O)Nc2cc(C)ccc2C)S(=O)(=O)c2c(C)noc2C)cc1 | > 19.5 µM (inactive)
58 | O=C(COc1ccc(-c2ccccc2)cc1)N/N=C/c1cc(O)ccc1Br | 5.68 µM
59 | Nc1ccc2c(c1)Oc1ccccc1C=C2 | > 19.5 µM (inactive)
60 | Cc1ccc(/C=N/Nc2cc(C)nc(NCc3ccccc3)n2)cc1 | 7.16 µM
61 | CCc1ccc(NC(=O)c2cc3c(C)nc4ccccc4c3o2)cc1 | 11.9 µM
62 | COc1ccc(C2=NN(C(=O)COC(=O)c3ccc(S(C)(=O)=O)c([N+](=O)[O-])c3)C(c3ccco3)C2)cc1 (stereo not given) | 3.84 µM
63 | NS(=O)(=O)c1ccc(N/N=C/c2cn(-c3ccccc3)nc2-c2cccs2)c([N+](=O)[O-])c1 | 1.9 µM
64 | CCC(C)Sc1cccc(-c2nc3cc(C)ccn3c2NCc2ccccc2)c1 (stereo not given) | 4.89 µM
65 | O=C(/C=C/c1ccc2c(c1)OCO2)NCCSCc1c(Cl)cccc1Cl | 2 µM
66 | COc1cc(-c2ccc3oc(-c4cccc(C)c4)c(C#CC4(O)CCCCC4)c3c2)cc(OC)c1OC | 15.4 µM
67 | COc1cccc(-c2sc3ccccc3c2-c2ccc(OCCN(C)C)cc2)c1 | 3.34 µM
68 | Cc1ccc(NC(=O)NCC2CCN(Cc3cccc(Cl)c3)CC2)cc1Cl | 6.9 µM
69 | Cc1cc(C)cc(NC(=O)Nc2ccc(NC(=O)c3ccccc3O)cc2)c1 | > 19.5 µM (inactive)
70 | N#Cc1c(-c2ccccc2)nc(SCc2cccc(Cl)c2)[nH]c1=O | 7.69 µM
71 | CCN(CC)c1nc(SCCOC(=O)Nc2ccccc2)nc(N(CC)CC)n1 | 4.58 µM
72 | CCOC(=O)Nc1ccc2nc(Sc3ccc(Cl)cc3)sc2c1 | 2.97 µM
73 | O=C(Nc1cc(C(F)(F)F)cc(C(F)(F)F)c1)Nc1cnn(-c2ccc([N+](=O)[O-])cc2)c1C(F)(F)F | 0.848 µM
74 | CN(CC(O)CON=C1c2ccccc2-c2ccccc21)S(=O)(=O)c1ccc(Br)cc1 (stereo not given) | 4.4 µM
75 | COc1ccc(-c2nn(-c3ccccc3)cc2C(=O)N(C)CC(=O)Nc2cccc(F)c2)cc1 | 15 µM
76 | CC(NC(=O)C1CCC(C(=O)NC(C)c2ccccc2)CC1)c1ccccc1 (stereo not given) | > 19.5 µM (inactive)
77 | Cc1ccc(CSc2nc3sc(C)c(C)c3c(=O)n2Cc2ccco2)cc1 | > 19.5 µM (inactive)
78 | O=S(=O)(Nc1ccc(-c2csc(-c3ccccc3)n2)cc1)c1ccccc1 | 5.92 µM
79 | CCOC(=O)c1c(NC(=O)C(c2ccccc2)c2ccccc2)sc2c1C1CCN2CC1 | 2.84 µM
80 | COc1ccc2cc(/C=N/NC(=O)c3ccc(CN(c4cccc(Cl)c4Cl)S(C)(=O)=O)cc3)c(Cl)nc2c1 | 0.211 µM
81 | CC(C)CC(=O)c1c(O)c(C=O)c(O)c2c1O[C@@]1(C)[C@@H](C2)C[C@H]2C[C@@H]1C2(C)C | 6.32 µM

Row | Compound | AC50
82 | CCOC(=O)c1c(-c2ccc(Cl)cc2)csc1NC(=O)CNCc1ccco1 | 5.2 µM
83 | Cn1c(-c2ccsc2)c(-c2cccs2)c2cc(-c3ccc4[nH]ccc4c3)ccc21 | > 19.5 µM (inactive)
84 | Cc1cc(C)nc(SCc2ccc(C(=O)N/N=C/c3cccc(O)c3O)cc2)n1 | 3.71 µM
85 | C=CCOc1cccc(/C=C2\C(=O)N(Cc3ccc(C)cc3)C(C)=C2C(=O)OC)c1 | 7.24 µM
86 | O=C(Nc1cccc(S(=O)(=O)N2CCCCC2)c1)c1ccc([N+](=O)[O-])o1 | 3.83 µM
87 | Cc1ccc(C)c(OCCCCN2CCNCC2)c1C | 6.15 µM
88 | Cc1oc(CC(C)C)cc1C(=O)Nc1cccc2ccccc12 | 5.98 µM
89 | O=C(Nc1ccc(C(O)(C(F)(F)F)C(F)(F)F)cc1)c1ccc(Cl)c([N+](=O)[O-])c1 | 7.08 µM
90 | O=C(Nc1cccc(S(=O)(=O)Nc2ccc(Cl)cc2)c1)c1cc2c(s1)CCCC2 | 2.79 µM
91 | O=C1CC(=Nc2ccccc2)NN1c1ccccc1 | 12.4 µM
92 | CC1CC1C(=O)N1CCN(S(=O)(=O)c2cc(C(F)(F)F)cc(C(F)(F)F)c2)CC1 (stereo not given) | 6.27 µM
93 | C=CCn1c(CNc2ccccc2)nnc1SCC(=O)N/N=C/c1ccc(O)cc1O | 3.23 µM
94 | COc1cccc(/C=N/NC(=O)c2ccc(-c3ccccc3)cc2)c1O | 3.33 µM
95 | O=C1C=C(Nc2ccc(F)cc2)c2ccccc2C1=O | 6.78 µM
96 | C/C(=N\NC(=S)NC(C)C)c1ccc(C(C)(C)C)cc1 | 10 µM
97 | Cc1ccc(Cl)cc1N1CCN(CC(=O)NC2CCCc3ccccc32)CC1 (stereo not given) | 6.66 µM
98 | OC(CNCCc1ccc(C(F)(F)F)cc1)COc1cccc2ccccc12 (stereo not given) | 3.54 µM
99 | CC(NS(=O)(=O)OCC(Cl)(Cl)Cl)c1ccc(C(C)(C)C)cc1 (stereo not given) | 3.57 µM
100 | CCn1c2ccccc2c2cc(NS(=O)(=O)c3ccc(C)cc3)ccc21 | 4.53 µM
101 | Nc1ccc(N2CCN(Cc3ccccc3Cl)CC2)c(Cl)c1 | 5.59 µM
102 | O=C(c1c[nH]c2ccccc12)C(Cl)c1ccccc1 (stereo not given) | 11.2 µM
103 | Brc1ccc2[nH]c3c(N4CCc5ccccc5C4)ncnc3c2c1 | 17.3 µM
104 | CCC(=O)Nc1nc(C)c(-c2csc(Nc3cccc(O)c3)n2)s1 | 0.384 µM
105 | CCCc1ccc(O)c(N=Cc2cc(Br)cc(OCC)c2O)c1 | 9.03 µM
